We go through one molecule from patent US20220106596A1, “A METHOD OF GENE EDITING” (University of Washington, priority 2019, published 2022).

The test system of assay [1] is HT-1080 cells with LHSN63D530 provirus and HPRT exon3D4. The experiment in a line: neo gene editing in HT-1080 cells infected with AAV2-HSN5′ (G418 selection), effect of emetine. It is filed as cell-based, human. An excerpt: (§1) The murine leukemia virus (MLV) vector LHSN63Δ53O contains a nonfunctional neomycin phosphotransferase target gene (neo) with a 53-bp deletion at nucleotide 63 of its open reading frame, a hygromycin phosphotransferase gene (hph) for selection, and a plasmid replication origin for recovering the target sites.
(§2) In some embodiments, a cell is gene edited using the HT-1080 (human fibrosarcoma cells) gene editing assay. This method uses HT-1080 neo/HPRT editing cells transduced with LHSN63Δ53O. HT-1080 cells contain an integrated copy of an MLV LHSN63Δ530 targeting locus and a 4 by deletion in the single copy, X-linked HPRT gene at exon 3. The cells are transduced with AAV2-HSN5′ and cultured in G418 to identify neo gene-edited cells. The AAV2-HSN5′ gene targeting vector contains sequences homologous to MLV-LHSN63Δ53O with a truncated neo gene that lacks the 53 by deletion. Alternatively, HT-1080 cells are transduced with AAV2-HPe3 targeting vector and selected with HAT medium to identify HPRT gene-edited cells (See Russell et al., 2008, Human Gene Therapy, 19: 907-914 and Deyle et al., 2014, Nature Structural & Molecular Biol., 21: 969-975). Targeted clones are expanded as a polyclonal population. Untargeted control cells are generated by transducing HT-1080 cells with the MLV vector LHSNO, which is identical to LHSN63Δ53O except that it contains a functional neo gene.
(§3) To determine the effect of emetine on gene editing, experiments were performed using human HT-1080 cells with LHSN63Δ530 provirus and HPRT exon 3Δ4, infected with AAV2-HSN5′ or AAV2-HPe3. Replicate samples of cells were treated under the following conditions: • AAV (MOI 2×10^4) alone for 24 hours; • 0.125 μM emetine for 8 hours followed by the addition of AAV (MOI 2×10^4) and incubation for 24 hours; • 0.25 μM emetine for 24 hours followed by the addition of AAV (MOI 2×10^4) and incubation for 24 hours; • 0.25 μM emetine for 24 hours followed by the addition of AAV (MOI 2×10^4) and incubation with AAV for 24 hours; • 0.25 μM emetine in the presence of AAV (MOI 2×10^4) for 24 hours; • AAV (MOI-2×10^4) for 8 hours followed by the addition of 0.25 μM emetine and incubation with emetine for 23 hours; • AAV (MOI-2×10^4) for 24 hours followed by the addition of 0.25 μM emetine and incubation with emetine for 8 hours; • AAV (MOI-2×10^4) for 8 hours followed by the addition of emetine (0.25 μM) and incubation with emetine for 18 hours, removal of emetine, followed by addition of a second dosage of emetine (0.25 μM) and incubation for 16 hours; or • AAV (MOI 2×10^4) for 24 hours followed by the addition of emetine (0.25 μM) and incubation for 7 hours, removal of emetine, followed by addition of a second dosage of emetine (0.25 μM) for 2 hours.
(§4) For each experiment, 2×10^4 cells were seeded and cultured in the presence of 4×10^8 AAV. All experiments were performed in DMEM+10% FBS+pen/strep. Emetine dihydrochloride hydrate: E2375 (Sigma) was prepared in water and sterilized by filtration on 0.22 uM filter.

In assay [2] the test system is mouse Hepa1-6 hepatoma cells. The experiment in a line: Gene editing (albumin knock-in, GFP expression by flow cytometry) with AAVDJ-mAlb-GFP. It is filed as cell-based. To be noted: 1000 nM emetine. The procedure:
To determine the effect of emetine on gene editing, experiments were performed using mouse Hepa1-6 hepatoma cells using the vector AAVDJ-mAlb-GFP. Gene editing in the presence of this vector results in an albumin knock-in with resulting expression of green fluorescent protein (GFP).
On day 0, 100,000 cells were plated in 1.5 ml DMEM with 10% FBS, 100 units/mL penicillin and 100 μg/mL streptomycin. On day 1, cells were transduced with AAVDJ-mAlb-GFP (multiplicity of (MOI)—50,000) by removing the media and adding to the cells 1.5 ml of fresh media (DMEM with 10% FBS, 100 units/mL penicillin, 100 μg/mL streptomycin) containing the desired MOI of the AAVDJ-mAlb-GFP virus. For 100,000 cells, to achieve an MOI of […] were added.
On day 2, fresh medium (1.5 ml of DMEM with 10% FBS, 100 units/mL penicillin, 100 μg/mL streptomycin) with or without emetine, was added. Replicate samples were treated with no emetine, or with 30 nM emetine, 100 nM emetine or 1000 nM emetine. A control sample lacked AAV. On day 3, the media was removed and 1.5 ml of DMEM with 10% FBS, 100 units/mL penicillin, 100 μg/mL streptomycin was added to the cells. Expression of GFP was measured on days 6, 7 and 10.
Flow cytometry was used to measure GFP expression. On the day of the assay (days 6, 7 and 10) cells were trypsinized and the resulting cell pellet was resuspended in 500 μL of FACS buffer (DPBS (Dulbecco's Phosphate Buffered Saline) without Ca2+, Mg2+, and supplemented with 2% FBS, 1 mM EDTA). The resulting cell suspension was analyzed for GFP positive cells on the BD FACScanto II. For samples treated with no AAV, 0 nM emetine, 30 nM emetine, and 100 nM emetine, 100,000 cells were analyzed, and for samples treated with 1000 nM emetine, 70,000 cells were analyzed.
(In general: Flow cytometry measures light scatter and fluorescence of single cells or particles in a stream.)

Assay [3] deals with HT-1080 cells with LHSN63D530 provirus and HPRT exon3D4. The experiment in a line: HPRT gene editing in HT-1080 cells infected with AAV2-HPe3 (HAT selection), effect of emetine. It counts as cell-based, human.
From the text: as §1, §2, §3, §4

For another assay, the system named is mouse liver. In words: In vivo gene editing of mouse liver with AAVDj-mALB-luciferase (bioluminescence imaging). Also noted: species or system C57BL/6 mice. To be noted: emetine 5 mg/kg intraperitoneal, days 1-5, FIG. 3. The procedure:
To determine the effect of emetine on gene editing in vivo, experiments were performed using C57BL/6 mice.
[…]. On day 0, 5 mice (Group I), were given AAVDj-mALB-luciferase vector at an amount of 3×10^11 vg/mouse by retro orbital injection. Gene editing of the AAVDj-mALB-luciferase vector results in an albumin locus knock-in and luciferase expression. 5 mice (Group 2) were injected with AAVDj-mALB-luciferase vector, at an amount of 3×10^11 vg/mouse by retro orbital injection, and given emetine in DPBS, at a concentration of 5 mg/kg, by intraperitoneal injection. 5 mice (Group 3) were injected only with emetine at a concentration of 5 mg/kg, by intraperitoneal injection.
Emetine was administered to Groups 2 and 3 on days 1-5. On days 8, […] and 22, in vivo imaging in the presence of 15 mg/kg D-luciferin, administered by intraperitoneal injection, was performed to determine the occurrence of editing. Following D-luciferin administration, the mice were anesthetized with isoflurane and placed in an IVIS imager and the peak bioluminescence was recorded (Gornalusse et al., 2017, Nature Biotech, 35(8): 765-772). […] At days 15 and 22, a 1.6 and 1.4 fold increase, respectively, were observed.

Where [4] appears, read: 0.125 μM emetine for 8 hrs before adding AAV.
The mark [5] stands for this setting: 0.25 μM emetine for 24 hrs before adding AAV.
Where [6] appears, read: 0.25 μM emetine for 24 hrs before adding AAV + 24 hrs with AAV.
[7] abbreviates: 0.25 μM emetine for 24 hrs with AAV.
Setting [8] is: AAV for 8 hrs, then added 0.25 μM emetine for 23 hrs.
Setting [9] is: AAV for 8 hrs, then added emetine for 18 hrs, then removed emetine for 8 hrs, then added emetine for 16 hrs.
Setting [10] is: AAV for 24 hrs then with 0.25 μM emetine for 8 hrs.
Setting [11] is: AAV for 24 hrs, then emetine for 7 hrs, then removed emetine for 16 hrs, then added emetine for 2 hrs.

Molecules are shown by their SMILES.

As for `CC[C@H]1CN2CCc3cc(OC)c(OC)cc3[C@@H]2C[C@@H]1C[C@H]1NCCc2cc(OC)c(OC)cc21` [emetine], the “Fold increase in editing frequency due to emetine, % G4158R emetine/% G418R no emetine” value came to 2.40 Fold in assay [1] (setting [4]); 3.82 Fold in assay [1] (setting [5]); 6.64 Fold in assay [1] (setting [6]); 3.70 Fold in assay [1] (setting [7]); 1.96 Fold in assay [1] (setting [8]); 8.47 Fold in assay [1] (setting [9]). Besides, the “Fold increase in editing frequency due to emetine, % G4158R emetine/% G418R no emetine” value in assay [1] (setting [10]) turned out to be 1.94 Fold; in assay [1] (setting [11]), 2.63 Fold. Moreover, the “increase in expression of GFP” value is 22 fold in assay [2] (day 6, FIG. 2); 12 fold in assay [2] (day 7, FIG. 2); 3 fold in assay [2] (day 10, FIG. 2). In addition, the “Fold increase in editing frequency due to emetine, % HATR/% HAR no emetine” value is listed as 8.39 Fold in assay [3] (setting [4]); 7.25 Fold in assay [3] (setting [5]); 11.19 Fold in assay [3] (setting [6]); 8.39 Fold in assay [3] (setting [7]); 1.99 Fold in assay [3] (setting [8]); 2.88 Fold in assay [3] (setting [9]). The “Fold increase in editing frequency due to emetine, % HATR/% HAR no emetine” value in assay [3] (setting [10]) is given as 1.63 Fold; in assay [3] (setting [11]), 1.56 Fold. Also, the “increase in level of gene editing in vivo in mouse liver (peak bioluminescence) as compared to mice treated with AAV alone” value in the assay with mouse liver (day 8) came out at 2.3 fold; in the assay on mouse liver (day 15) it was 1.6 fold; in the assay on mouse liver (day 22), 1.4 fold.
